Results on 33 molecules are retold here after patent US8541588B2, “Sulfonamide derivatives” (Pfizer Limited, priority 2009, dated 2013).

As a reminder, the IC50 is the concentration that gives 50% inhibition.

T1 sequence (Q15858 whole entry): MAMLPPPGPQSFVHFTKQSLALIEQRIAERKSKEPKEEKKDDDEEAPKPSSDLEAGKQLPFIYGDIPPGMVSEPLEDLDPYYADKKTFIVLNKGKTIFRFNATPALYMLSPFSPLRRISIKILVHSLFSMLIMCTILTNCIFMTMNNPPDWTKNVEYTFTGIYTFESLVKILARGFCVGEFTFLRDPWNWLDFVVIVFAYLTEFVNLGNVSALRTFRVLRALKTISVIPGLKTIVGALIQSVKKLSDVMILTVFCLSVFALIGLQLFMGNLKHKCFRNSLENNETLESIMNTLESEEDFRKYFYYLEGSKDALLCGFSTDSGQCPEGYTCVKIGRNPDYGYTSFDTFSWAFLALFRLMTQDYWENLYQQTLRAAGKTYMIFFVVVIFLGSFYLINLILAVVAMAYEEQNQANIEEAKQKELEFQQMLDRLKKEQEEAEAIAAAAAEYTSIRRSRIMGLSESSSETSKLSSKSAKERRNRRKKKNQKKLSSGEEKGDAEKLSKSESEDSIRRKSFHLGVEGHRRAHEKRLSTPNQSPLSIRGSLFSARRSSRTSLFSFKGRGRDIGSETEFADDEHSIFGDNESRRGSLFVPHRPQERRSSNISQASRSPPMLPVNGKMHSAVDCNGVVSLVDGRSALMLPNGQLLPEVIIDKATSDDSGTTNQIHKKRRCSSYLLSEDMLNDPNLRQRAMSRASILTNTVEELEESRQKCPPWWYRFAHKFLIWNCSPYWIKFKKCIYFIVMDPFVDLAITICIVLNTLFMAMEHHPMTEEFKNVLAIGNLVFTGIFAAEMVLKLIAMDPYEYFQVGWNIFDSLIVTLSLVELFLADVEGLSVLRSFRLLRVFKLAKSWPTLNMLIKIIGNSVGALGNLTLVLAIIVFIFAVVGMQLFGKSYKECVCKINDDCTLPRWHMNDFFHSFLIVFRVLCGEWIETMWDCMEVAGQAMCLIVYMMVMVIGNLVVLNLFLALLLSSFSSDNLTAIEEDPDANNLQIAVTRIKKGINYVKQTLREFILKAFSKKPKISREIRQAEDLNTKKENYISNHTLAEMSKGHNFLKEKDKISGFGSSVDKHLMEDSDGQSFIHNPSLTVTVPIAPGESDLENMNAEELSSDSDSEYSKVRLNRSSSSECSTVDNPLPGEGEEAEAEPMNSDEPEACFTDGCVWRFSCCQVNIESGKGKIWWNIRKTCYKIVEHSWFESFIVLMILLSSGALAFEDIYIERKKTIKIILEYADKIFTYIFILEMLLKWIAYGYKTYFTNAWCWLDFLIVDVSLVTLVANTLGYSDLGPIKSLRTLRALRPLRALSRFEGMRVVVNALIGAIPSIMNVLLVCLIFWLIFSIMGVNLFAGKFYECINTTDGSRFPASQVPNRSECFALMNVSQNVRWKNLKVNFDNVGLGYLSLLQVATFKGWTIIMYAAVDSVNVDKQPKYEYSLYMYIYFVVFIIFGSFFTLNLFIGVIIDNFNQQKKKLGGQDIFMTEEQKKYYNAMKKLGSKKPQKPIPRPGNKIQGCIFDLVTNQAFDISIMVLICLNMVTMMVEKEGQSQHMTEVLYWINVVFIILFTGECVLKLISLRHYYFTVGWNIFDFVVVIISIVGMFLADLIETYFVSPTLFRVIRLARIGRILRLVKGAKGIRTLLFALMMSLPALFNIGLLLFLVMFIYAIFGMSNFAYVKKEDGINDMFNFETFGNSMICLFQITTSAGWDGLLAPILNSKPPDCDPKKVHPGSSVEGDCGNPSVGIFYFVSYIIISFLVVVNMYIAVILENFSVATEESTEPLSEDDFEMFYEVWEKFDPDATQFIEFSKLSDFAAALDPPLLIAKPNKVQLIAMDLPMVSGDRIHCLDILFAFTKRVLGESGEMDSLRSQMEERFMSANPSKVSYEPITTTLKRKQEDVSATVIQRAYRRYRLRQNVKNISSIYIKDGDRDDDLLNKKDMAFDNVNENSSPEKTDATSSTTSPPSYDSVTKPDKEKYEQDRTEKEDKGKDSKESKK

One assay concerns the target T1, Nav1.7 (or SCN9A) channel; HEK cells stably transfected with hSCN9A (Homo sapiens, UniProt Q15858).
T1 construct: expressed in transfected cells
In words: Nav1.7 block, PatchXpress 7000 automated whole-cell voltage clamp, estimated IC50 (EIC50). It is filed as cell-based.
Details: not given
For `O=S(=O)(Nc1ncns1)c1cc(F)c(Oc2ccc(C(F)(F)F)cc2C2=CCNCC2)cc1F` [Example 733, 2,5-difluoro-4-[2-(1,2,3,6-tetrahydropyridin-4-yl)-4-(trifluoromethyl)phenoxy]-N-1,2,4-thiadiazol-5-ylbenzenesulfonamide], the IC50 was 10 nM.

The assay is the same for the next values; noted with them: estimated IC50; hSCN9A HEK cells, PatchXpress platform; Examples 283-814.
In the case of `Cn1nc(C(F)(F)F)cc1-c1ccc(Oc2ccc(S(=O)(=O)Nc3ncc(F)s3)cc2C#N)c(Cl)c1` [Example 720, 4-{2-chloro-4-[1-methyl-3-(trifluoromethyl)-1H-pyrazol-5-yl]phenoxy}-3-cyano-N-(5-fluoro-1,3-thiazol-2-yl)benzenesulfonamide], the IC50 was 56 nM.
Regarding `Cn1nccc1-c1cc(C#N)ccc1Oc1ccc(S(=O)(=O)Nc2nccs2)cc1F` [Example 721, 4-[4-Cyano-2-(1-methyl-1H-pyrazol-5-yl)phenoxy]-3-fluoro-N-1,3-thiazol-2-ylbenzenesulfonamide], the half-inhibitory concentration (IC50) is 160 nM.
On the same count and under the same terms, next, `O=S(=O)(Nc1nccs1)c1ccc(Oc2cc(Cl)ccc2-c2ccn[nH]2)c(F)c1` [Example 722, 4-[5-Chloro-2-(1H-pyrazol-5-yl)phenoxy]-3-fluoro-N-1,3-thiazol-2-ylbenzenesulfonamide]: 140 nM.
On the same count and under the same terms, next, `CC(C)Cc1ccc(Oc2ccc(S(=O)(=O)Nc3nccs3)cc2F)c(-c2ccnn2C)c1` [Example 723, 3-Fluoro-4-[4-isobutyl-2-(1-methyl-1H-pyrazol-5-yl)phenoxy]-N-1,3-thiazol-2-ylbenzenesulfonamide]: 64 nM; `O=S(=O)(Nc1ncns1)c1ccc(Oc2ccc(Cl)cc2-c2cn[nH]c2)c(Cl)c1` [Example 724, 3-chloro-4-[4-chloro-2-(1H-pyrazol-4-yl)phenoxy]-N-1,2,4-thiadiazol-5-ylbenzenesulfonamide]: 1.7 nM; `CN1CCC(n2nccc2-c2cc(Cl)ccc2Oc2ccc(S(=O)(=O)Nc3ncns3)cc2C#N)CC1` [Example 725, 4-{4-chloro-2-[1-(1-methylpiperidin-4-yl)-1H-pyrazol-5-yl]phenoxy}-3-cyano-N-1,2,4-thiadiazol-5-ylbenzenesulfonamide]: 20 nM.
Consider `O=S(=O)(Nc1cscn1)c1cc(Cl)c(Oc2ccc(Cl)cc2-c2ccnn2C2CNC2)cc1F` [Example 726, 4-[2-(1-azetidin-3-yl-1H-pyrazol-5-yl)-4-chlorophenoxy]-5-chloro-2-fluoro-N-1,3-thiazol-4-ylbenzenesulfonamide], for which the IC50 was 5.8 nM.
Still for that read-out and setting: next, `N#Cc1cc(S(=O)(=O)Nc2cscn2)ccc1Oc1ccc(C(F)(F)F)cc1-c1cnn(C2CNC2)c1` [Example 727, 4-[2-(1-azetidin-3-yl-1H-pyrazol-4-yl)-4-(trifluoromethyl)phenoxy]-3-cyano-N-1,3-thiazol-4-ylbenzenesulfonamide]: 1900 nM.
On the same count and under the same terms, in the case of `N#Cc1cc(S(=O)(=O)Nc2ncns2)ccc1Oc1ccc(Cl)cc1-c1ccnn1C1CNC1` [Example 728, 4-[2-(1-azetidin-3-yl-1H-pyrazol-5-yl)-4-chlorophenoxy]-3-cyano-N-1,2,4-thiadiazol-5-ylbenzenesulfonamide] it was 4.8 nM; in that of `CN1CC(n2nccc2-c2cc(Cl)ccc2Oc2ccc(S(=O)(=O)Nc3cscn3)cc2C#N)C1` [Example 729, 4-{4-chloro-2-[1-(1-methylazetidin-3-yl)-1H-pyrazol-5-yl]phenoxy}-3-cyano-N-1,3-thiazol-4-ylbenzenesulfonamide], 22 nM; in that of `CN1CC(n2nccc2-c2cc(Cl)ccc2Oc2cc(F)c(S(=O)(=O)Nc3cscn3)cc2Cl)C1` [Example 730, 5-chloro-4-{4-chloro-2-[1-(1-methylazetidin-3-yl)-1H-pyrazol-5-yl]phenoxy}-2-fluoro-N-1,3-thiazol-4-ylbenzenesulfonamide], 9.9 nM.
Still for that read-out and setting: in the case of `Nc1cc(-c2cc(Cl)ccc2Oc2cc(F)c(S(=O)(=O)Nc3ncns3)cc2Cl)ccn1` [Example 732, 4-[2-(2-aminopyridin-4-yl)-4-chlorophenoxy]-5-chloro-2-fluoro-N-1,2,4-thiadiazol-5-ylbenzenesulfonamide] it was 3.5 nM; in that of `CN1CCC(c2cc(Cl)ccc2Oc2cc(F)c(S(=O)(=O)Nc3ncns3)cc2F)CC1` [Example 734, 4-[4-chloro-2-(1-methylpiperidin-4-yl)phenoxy]-2,5-difluoro-N-1,2,4-thiadiazol-5-ylbenzenesulfonamide], 53 nM; in that of `Cn1nccc1-c1cc(Br)ccc1Oc1ccc(S(=O)(=O)Nc2ncns2)cc1C(N)=O` [Example 735, 2-[4-bromo-2-(1-methyl-1H-pyrazol-5-yl)phenoxy]-5-[(1,2,4-thiadiazol-5-ylamino)sulfonyl]benzamide], 1000 nM.
With `N#Cc1cc(S(=O)(=O)Nc2ncns2)ccc1Oc1ccc(Cl)cc1-c1ccnc(N2CCNCC2)c1` [Example 736, 4-[4-chloro-2-(2-piperazin-1-ylpyridin-4-yl)phenoxy]-3-cyano-N-1,2,4-thiadiazol-5-ylbenzenesulfonamide], the half-inhibitory concentration (IC50) is 2.7 nM.
Consider `O=S(=O)(Nc1ncns1)c1ccc(Oc2ccc(Cl)cc2-c2cn[nH]c2)c(F)c1` [Example 737, 4-[4-chloro-2-(1H-pyrazol-4-yl)phenoxy]-3-fluoro-N-1,2,4-thiadiazol-5-ylbenzenesulfonamide], for which the IC50 was 17 nM.
Same read-out and setting: next, `O=S(=O)(Nc1ncns1)c1cc(F)c(Oc2ccc(Cl)cc2-c2cn[nH]c2)cc1F` [Example 738, 4-[4-chloro-2-(1H-pyrazol-4-yl)phenoxy]-2,5-difluoro-N-1,2,4-thiadiazol-5-ylbenzenesulfonamide]: 1.4 nM.
Same read-out and setting: in the case of `Cn1nccc1-c1cc(Cl)ccc1Oc1ncc(S(=O)(=O)Nc2nccs2)cc1C#N` [Example 739, 6-[4-chloro-2-(1-methyl-1H-pyrazol-5-yl)phenoxy]-5-cyano-N-1,3-azol-2-ylpyridine-3-sulfonamide] it was 150 nM; in that of `CCn1nc(C(F)(F)F)cc1-c1ccc(Oc2ncc(S(=O)(=O)Nc3nccs3)cc2C#N)cc1` [Example 740, 5-cyano-6-{4-[1-ethyl-3-(trifluoromethyl)-1H-pyrazol-5-yl]phenoxy}-N-1,3-thiazol-2-ylpyridine-3-sulfonamide], 400 nM; in that of `N#Cc1cc(S(=O)(=O)Nc2ncns2)ccc1Oc1ccc(C(F)(F)F)cc1-c1ccn[nH]1` [Example 741, 3-cyano-4-[2-(1H-pyrazol-5-yl)-4-(trifluoromethyl)phenoxy]-N-1,2,4-thiadiazol-5-ylbenzenesulfonamide], 7.8 nM.
On the same count and under the same terms, next, `Nc1n[nH]cc1-c1cc(Cl)ccc1Oc1cc(F)c(S(=O)(=O)Nc2ncns2)cc1F` [Example 742, 4-[2-(3-amino-1H-pyrazol-4-yl)-4-chlorophenoxy]-2,5-difluoro-N-1,2,4-thiadiazol-5-ylbenzenesulfonamide]: 3.6 nM; `N#Cc1cc(S(=O)(=O)Nc2ncns2)ccc1Oc1ccc(Cl)cc1-c1ccnc(Cl)c1` [Example 743, 4-[4-chloro-2-(2-chloropyridin-4-yl)phenoxy]-3-cyano-N-1,2,4-thiadiazol-5-ylbenzenesulfonamide]: 12 nM; `O=S(=O)(Nc1ccncn1)c1ccc(Oc2ccc(Cl)cc2C2CCNCC2)c(Cl)c1` [Example 744, 3-chloro-4-(4-chloro-2-piperidin-4-ylphenoxy)-N-pyrimidin-4-ylbenzenesulfonamide]: 170 nM.
For `Cn1nccc1-c1cc(Cl)ccc1Oc1ccc(S(=O)(=O)Nc2ccc(F)cn2)cc1Cl` [Example 745, 3-chloro-4-[4-chloro-2-(1-methyl-1H-pyrazol-5-yl)phenoxy]-N-(5-fluoropyridin-2-yl)benzenesulfonamide], the half-inhibitory concentration (IC50) was 120 nM.
On the same count and under the same terms, in the case of `O=S(=O)(Nc1ccncn1)c1ccc(Oc2ccc(Cl)cc2-c2ccn[nH]2)c(Cl)c1` [Example 746, 3-chloro-4-[4-chloro-2-(1H-pyrazol-5-yl)phenoxy]-N-pyrimidin-4-ylbenzenesulfonamide] it was 95 nM.
Regarding `O=S(=O)(Nc1nncs1)c1ccc(Oc2ccc(Cl)cc2-c2ccn[nH]2)c(Cl)c1` [Example 747, 3-chloro-4-[4-chloro-2-(1H-pyrazol-5-yl)phenoxy]-N-1,3,4-adiazol-2-ylbenzenesulfonamide], the IC50 was 50 nM.
The same measure, in the same setting: next, `O=S(=O)(Nc1nncs1)c1cc(Cl)c(Oc2ccc(Cl)cc2-c2ccnn2CCO)cc1F` [Example 748, 5-chloro-4-{4-chloro-2-[1-(2-hydroxyethyl)-1H-pyrazol-5-yl]phenoxy}-2-fluoro-N-1,3,4-thiadiazol-2-ylbenzenesulfonamide]: 170 nM; `Cc1n[nH]cc1-c1cc(Cl)ccc1Oc1ccc(S(=O)(=O)Nc2nccs2)cc1F` [Example 749, 4-[4-chloro-2-(3-methyl-1H-pyrazol-4-yl)phenoxy]-3-fluoro-N-1,3-thiazol-2-ylbenzenesulfonamide]: 45 nM; `O=S(=O)(Nc1cscn1)c1cc(F)c(Oc2ccc(OC(F)(F)F)cc2-c2cn[nH]c2)cc1F` [Example 750, 2,5-difluoro-4-[2-(1H-pyrazol-4-yl)-4-(trifluoromethoxy)phenoxy]-N-1,3-thiazol-4-ylbenzenesulfonamide]: 210 nM.
`N#Cc1cc(S(=O)(=O)Nc2ncns2)ccc1Oc1cc(Cl)c(F)cc1-c1ccn[nH]1` [Example 751, 4-[5-chloro-4-fluoro-2-(1H-pyrazol-5-yl)phenoxy]-3-cyano-N-1,2,4-thiadiazol-5-ylbenzenesulfonamide]: the IC50 is 13 nM.
On the same count and under the same terms, next, `O=S(=O)(Nc1ncns1)c1cc(F)c(Oc2cc(Cl)c(F)cc2-c2cn[nH]c2)cc1F` [Example 752, 4-[5-chloro-4-fluoro-2-(1H-pyrazol-4-yl)phenoxy]-2,5-difluoro-N-1,2,4-thiadiazol-5-ylbenzenesulfonamide]: 2.1 nM.
On to `O=S(=O)(Nc1ncns1)c1cc(F)c(Oc2cc(Cl)c(F)cc2-c2ccn[nH]2)cc1F` [Example 753, 4-[5-chloro-4-fluoro-2-(1H-pyrazol-5-yl)phenoxy]-2,5-difluoro-N-1,2,4-thiadiazol-5-ylbenzenesulfonamide], for which the IC50 was 5.2 nM.
